Data as given in patent publication US5753617A, “Peptide inhibitors of cellular adhesion” (Centocor, Inc., priority 1995, dated 1998).
Where a SMILES comes first, the peptide text is derived from it. Bridges are numbered along the chain shown (N, C = ends). [ ]: non-standard residue; d: D form. d2Nal = N[C@H](Cc1ccc2ccccc2c1)C(=O)O; dΔPro = O=C(O)[C@H]1C=CCN1

target: T1, P-selectin (Homo sapiens, UniProt P16109); assay: Inhibition of human neutrophil adhesion to purified P-selectin immobilized on plastic wells; format: cell-based; settings: inhibiting the binding of human neutrophils to P-selectin
T1 construct: P-selectin is isolated from human platelet lysates; from tissue; host or cells: human platelets (outdated platelet packs from a blood bank)
T1 sequence (P16109 42-830): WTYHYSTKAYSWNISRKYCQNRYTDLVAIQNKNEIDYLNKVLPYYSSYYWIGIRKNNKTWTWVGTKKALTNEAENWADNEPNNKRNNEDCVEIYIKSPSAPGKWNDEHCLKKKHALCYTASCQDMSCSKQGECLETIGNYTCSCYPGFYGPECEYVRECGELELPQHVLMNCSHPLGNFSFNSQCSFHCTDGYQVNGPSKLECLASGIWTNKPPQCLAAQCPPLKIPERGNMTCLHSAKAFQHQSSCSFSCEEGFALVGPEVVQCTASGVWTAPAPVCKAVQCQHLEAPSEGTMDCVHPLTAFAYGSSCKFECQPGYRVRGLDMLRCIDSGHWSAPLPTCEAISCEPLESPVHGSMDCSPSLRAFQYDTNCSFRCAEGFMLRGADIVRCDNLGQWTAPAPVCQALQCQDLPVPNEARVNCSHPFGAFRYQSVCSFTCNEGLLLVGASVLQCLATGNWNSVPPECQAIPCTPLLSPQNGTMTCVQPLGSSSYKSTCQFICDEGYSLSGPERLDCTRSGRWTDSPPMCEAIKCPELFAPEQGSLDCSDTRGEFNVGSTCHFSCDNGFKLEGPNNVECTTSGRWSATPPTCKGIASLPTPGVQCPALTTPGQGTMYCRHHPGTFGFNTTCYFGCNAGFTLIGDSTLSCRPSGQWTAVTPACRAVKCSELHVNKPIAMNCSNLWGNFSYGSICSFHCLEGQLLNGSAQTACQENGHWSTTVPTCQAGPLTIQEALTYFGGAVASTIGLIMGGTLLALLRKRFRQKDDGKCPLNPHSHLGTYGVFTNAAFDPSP
From the text: Peptides can be screened for their ability to inhibit adhesion to cells, for example, neutrophil adhesion to purified P-selectin immobilized on plastic wells, using the assay described by Geng, et al., Nature 343, 757-760 (1990). Human neutrophils are isolated from heparinized whole blood by density gradient centrifugation on Mono-Poly resolving media, Flow Laboratories. Neutrophil suspensions are greater than 98% pure and greater than 95% viable by trypan blue exclusion. For adhesion assays, neutrophils are suspended at a concentration of 2×10^6 cells/mL in Hanks' balanced salt solution containing 1.26 mM Ca^2+ and 0.81 mM Mg^2+ (HBSS, Gibco) with […] human serum albumin (HBSS/HSA). Adhesion assays are conducted in triplicate in 96-well microliter plates, Corning, incubated at 4° C. overnight with 50 microliters of various protein solutions. P-selectin is isolated from human platelet lysates by immunoaffinity chromatography on antibody S12-Sepharose™ and ion-exchange chromatography on a Mono-Q™ column (FLPC, Pharmacia Fine Chemicals), as follows. Outdated human platelet packs (100 units) obtained from a blood bank and stored at 4° C. are pooled, adjusted to 5 mM EDTA at pH 7.5, centrifuged at 4,000 rpm for 30 minutes in 1 liter bottles, then washed three times with 1 liter of 0.1M NaCl, 20 mM Tris pH 7.5 (TBS), 5 mM EDTA, 5 mM benzamidine. The pellets are then resuspended in a minimum amount of wash buffer and made 1 mM in DIFP, then frozen in 50 mL screwtop tubes at -80° C. The frozen platelets are thawed and resuspended in 50 mL TBS, 5 mM benzamidine, 5 mM EDTA pH 7.5, […]. The suspension is frozen and thawed two times in a dry ice-acetone bath using a 600 mL lyophilizing flask, then homogenized in a glass/teflon mortar and pestle and made 1 mM in DIFP. The NaCl concentration is adjusted to 0.5M with a stock solution of 4M NaCl. After stirring the suspension at 4° C., it is centrifuged in polycarbonate tubes at 33,000 rpm for 60 minutes at 4° C. The supernatant (0.5M NaCl wash) is removed and saved; this supernatant contains the soluble form of P-selectin. Care is taken not to remove the top part of the pellet with the supernatant. The pellets are then homogenized in extraction buffer (TBS, 5 mM benzamidine, 5 mM EDTA, pH 7.5, 100 μM leupeptin, 2% Triton X-100). After centrifugation at 19,500 rpm for 25 minutes at 4° C., the supernatant is removed. The extraction procedure is repeated with the pellet and the supernatant is combined with the first supernatant. The combined extracts, which contain the membrane form of P-selectin, are adjusted to 0.5M NaCl. The soluble fraction (0.5M NaCl wash) and the membrane extract (also adjusted to 0.5M NaCl) are absorbed with separate pools of the monoclonal antibody S12 (directed to P-selectin) previously couple […]) at 5 mg/mL for 2 hours at 4° C. After letting the resins settle, the supernatants are removed. The S12 Affigel containing bound GMP-140 is then loaded into a column and washed overnight at 4° C. with 400 mL of 0.5M NaCl, 20 mM Tris pH 7.5, 0.01% Lubrol PX. Bound P-selectin is eluted from the S12 Affigel with 100 mL of 80% ethylene glycol, 1 mM MES pH 6.0, 0.01% Lubrol PX. Peak fractions with absorbance at 280 nm are pooled. Eluates are dialyzed against TBS with 0.05% Lubrol, then applied to a Mono Q column (FPLC from Pharmacia). The concentrated protein is step eluted with 2M NaCl, 20 mM Tris pH 7.5 (plus 0.05% Lubrol PX for the membrane fraction). Peak fractions are dialyzed into TBS pH 7.5 (plus 0.05% Lubrol PX for the membrane fraction). P-selectin is plated at 5 micrograms/mL and the control proteins: human serum albumin (Alb), platelet glycoprotein IIb/IIIa (IIb), von Willebrand factor (vWF), fibrinogen (FIB), thrombomodulin (TM), gelatin (GEL) or human serum (HS), are added at 50 micrograms/mL. […]

IC50 [µM] | Compound
93 | CC[C@H](C)[C@@H]1NC(=O)CNC(=O)[C@@H](NC(=O)[C@@H](NC(=O)[C@H](CCCCN)NC(=O)[C@@H](N)CCCNC(=N)N)[C@@H](C)CC)CCC(=O)NCCCC[C@@H](C(=O)N[C@@H](Cc2c[nH]c3ccccc23)C(=O)N[C@H](C(N)=O)C(C)C)NC(=O)[C@H](Cc2c[nH]c3ccccc23)NC1=O [(30)] (H-RKIEGIWKWV-NH2; lactam 4-8)
18 | CC[C@H](C)[C@@H]1NC(=O)CNC(=O)[C@@H](NC(=O)[C@@H](NC(=O)[C@H](CCCCN)NC(=O)[C@@H](N)CCCNC(=N)N)[C@@H](C)CC)CCCCNC(=O)CC[C@@H](C(=O)N[C@@H](Cc2c[nH]c3ccccc23)C(=O)N[C@H](C(N)=O)C(C)C)NC(=O)[C@H](Cc2c[nH]c3ccccc23)NC1=O [(31)] (H-RKIKGIWEWV-NH2; lactam 4-8)
23 | CC[C@@H](C)[C@@H](NC(=O)[C@@H](CCCCN)NC(=O)[C@H](N)CCCNC(=N)N)C(=O)NCC(=O)N[C@@H]1CSSC[C@H](C(=O)N[C@@H](C(=O)N[C@@H](C(N)=O)C(C)C)[C@H](C)O)NC(=O)[C@@H](Cc2c[nH]c3ccccc23)NC(=O)[C@@H]([C@H](C)CC)NC1=O [(32)] (H-[dR][dK][dI]G[dC][dI][dW][dC][dT][dV]-NH2; disulfide 5-8)
88.5 | CC(C)[C@@H](NC(=O)[C@@H](Cc1c[nH]c2ccccc12)NC(=O)[C@H](NC(=O)[C@@H](Cc1c[nH]c2ccccc12)NC(=O)[C@H]1CSSC[C@@H](NC(=O)[C@H](CCCCN)NC(=O)[C@H](N)CCCNC(=N)N)C(=O)NCC(=O)N[C@@H](Cc2ccccc2)C(=O)N1)[C@H](C)O)C(N)=O [(34)] (H-[dR]K[dC]GF[dC][dW][dT][dW][dV]-NH2; disulfide 3-6)
11.6 | CC(C)[C@@H](NC(=O)[C@@H](Cc1c[nH]c2ccccc12)NC(=O)[C@H](NC(=O)[C@@H](Cc1c[nH]c2ccccc12)NC(=O)[C@H]1CSSC[C@H](NC(=O)[C@@H](CCCCN)NC(=O)[C@H](N)CCCNC(=N)N)C(=O)NCC(=O)N[C@@H](Cc2ccccc2)C(=O)N1)[C@H](C)O)C(N)=O [(35)] (H-[dR][dK]CGF[dC][dW][dT][dW][dV]-NH2; disulfide 3-6)
267 | CC(C)[C@@H](NC(=O)[C@@H](Cc1c[nH]c2ccccc12)NC(=O)[C@H](NC(=O)[C@@H](Cc1c[nH]c2ccccc12)NC(=O)[C@H]1CSSC[C@@H](NC(=O)[C@@H](CCCCN)NC(=O)[C@H](N)CCCNC(=N)N)C(=O)NCC(=O)N2CC=C[C@@H]2C(=O)N1)[C@H](C)O)C(N)=O [(36)] (H-[dR][dK][dC]G[dΔPro][dC][dW][dT][dW][dV]-NH2; disulfide 3-6)
324 | CC(C)[C@@H](NC(=O)[C@@H](Cc1c[nH]c2ccccc12)NC(=O)[C@H](NC(=O)[C@@H](Cc1c[nH]c2ccccc12)NC(=O)[C@H]1CSSC[C@@H](NC(=O)[C@@H](CCCCN)NC(=O)[C@H](N)CCCNC(=N)N)C(=O)NCC(=O)N[C@@H](CCCNC(=N)N)C(=O)N1)[C@H](C)O)C(N)=O [(40)] (H-[dR][dK][dC]GR[dC][dW][dT][dW][dV]-NH2; disulfide 3-6)
48.4 | CC(C)[C@@H](NC(=O)[C@@H](Cc1c[nH]c2ccccc12)NC(=O)[C@H](NC(=O)[C@@H](CCC(N)=O)NC(=O)[C@H]1CSSC[C@@H](NC(=O)[C@@H](CCCCN)NC(=O)[C@H](N)CCCNC(=N)N)C(=O)NCC(=O)N[C@@H](Cc2ccccc2)C(=O)N1)[C@H](C)O)C(N)=O [(46)] (H-[dR][dK][dC]GF[dC][dQ][dT][dW][dV]-NH2; disulfide 3-6)
406 | CC(C)[C@@H](NC(=O)[C@@H](Cc1c[nH]c2ccccc12)NC(=O)[C@H](NC(=O)[C@@H](Cc1c[nH]cn1)NC(=O)[C@H]1CSSC[C@@H](NC(=O)[C@@H](CCCCN)NC(=O)[C@H](N)CCCNC(=N)N)C(=O)NCC(=O)N[C@@H](Cc2ccccc2)C(=O)N1)[C@H](C)O)C(N)=O [(48)] (H-[dR][dK][dC]GF[dC][dH][dT][dW][dV]-NH2; disulfide 3-6)
7.1 | CC[C@H](C)[C@@H]1NC(=O)[C@H]([C@@H](C)CC)NC(=O)[C@H](NC(=O)[C@@H](CCCCN)NC(=O)[C@H](N)CCCNC(=N)N)CSSC[C@H](C(=O)N[C@H](Cc2c[nH]c3ccccc23)C(=O)N[C@@H](C(=O)N[C@H](Cc2c[nH]c3ccccc23)C(=O)N[C@@H](C(N)=O)C(C)C)[C@H](C)O)NC1=O [(49)] (H-[dR][dK][dC]II[dC][dW][dT][dW][dV]-NH2; disulfide 3-6)
19.5 | CC(=O)NCCCC[C@@H](NC(=O)[C@H]1CSC[C@@H](NC(=O)[C@@H](CCCCN)NC(=O)[C@H](N)CCCNC(=N)N)C(=O)NCC(=O)N[C@@H](Cc2ccccc2)C(=O)N1)C(=O)N[C@@H](C(=O)N[C@H](Cc1c[nH]c2ccccc12)C(=O)N[C@@H](C(N)=O)C(C)C)[C@H](C)O [(50)]
7.7 | CC(C)[C@@H](NC(=O)[C@@H](Cc1c[nH]c2ccccc12)NC(=O)[C@H](NC(=O)[C@@H](Cc1ccc2ccccc2c1)NC(=O)[C@H]1CSSC[C@@H](NC(=O)[C@@H](CCCCN)NC(=O)[C@H](N)CCCNC(=N)N)C(=O)NCC(=O)N[C@@H](Cc2ccccc2)C(=O)N1)[C@H](C)O)C(N)=O [(51)] (H-[dR][dK][dC]GF[dC][d2Nal][dT][dW][dV]-NH2; disulfide 3-6)
217 | CC(C)[C@@H](NC(=O)[C@@H](Cc1c[nH]c2ccccc12)NC(=O)[C@H](NC(=O)[C@@H](Cc1c[nH]c2ccccc12)NC(=O)[C@H]1CSSC[C@@H](NC(=O)[C@@H](CCCCN)NC(=O)[C@H](N)CCCNC(=N)N)C(=O)N[C@H](CCCCN)C(=O)N[C@@H](Cc2ccccc2)C(=O)N1)[C@H](C)O)C(N)=O [(54)] (H-[dR][dK][dC][dK]F[dC][dW][dT][dW][dV]-NH2; disulfide 3-6)
727 | CC(C)[C@@H](NC(=O)[C@@H](Cc1c[nH]c2ccccc12)NC(=O)[C@H](NC(=O)[C@@H](CCCCN)NC(=O)[C@H]1CSSC[C@@H](NC(=O)[C@@H](CCCCN)NC(=O)[C@H](N)CCCNC(=N)N)C(=O)NCC(=O)N[C@@H](Cc2ccccc2)C(=O)N1)[C@H](C)O)C(N)=O [(56)] (H-[dR][dK][dC]GF[dC][dK][dT][dW][dV]-NH2; disulfide 3-6)
